In PubChem BioAssay (NCI):
“And” between values parts separate entries of the source, which are not always exact repeats. Equal entries are not always repeated.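 Briefly, cells in 96-well plates were exposed to five compound concentrations for 48 h, and endpoints were estimated by linear interpolation. GI50 marks 50% less growth. TGI marks complete inhibition of growth.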

What was measured:
Test in all cases: inhibition of tumour cell growth, NCI panel, 48 h
[1] = system: SW-620 colon
[2] = system: SF-295 CNS
[3] = system: NCI-H460 lung
[4] = system: IGROV1 ovarian
[5] = system: UO-31 renal
[6] = system: MALME-3M melanoma
[7] = system: TK-10 renal
[8] = system: NCI-H522 lung
[9] = system: DU-145 prostate
[10] = system: EKVX NSCLC

Row | SMILES | GI50 [1] | TGI [1] | GI50 [2] | TGI [2] | GI50 [3] | TGI [3] | GI50 [4] | TGI [4] | GI50 [5] | TGI [5] | GI50 [6] | TGI [6] | GI50 [7] | TGI [7] | GI50 [8] | TGI [8] | GI50 [9] | TGI [9] | GI50 [10] | TGI [10]
1 | O=C(/C=C\Sc1nccc(C(F)(F)F)n1)c1ccc(Br)cc1 | 30.5 µM | > 100 µM | > 100 µM | > 100 µM | > 100 µM | > 100 µM | 16.8 µM | 35.8 µM | 18.7 µM | 34 µM | 16.9 µM | 43.9 µM | 26.4 µM | 59.6 µM | 15 µM | 33.2 µM | 17.6 µM | 47.9 µM | 23.3 µM | 67.4 µM
2 | O=C(O)CCC1CCC(c2cc(F)ccc2F)(S(=O)(=O)c2ccc(Cl)cc2)CC1 (configuration not stated) | 32.2 µM and > 100 µM | > 100 µM | > 56.9 µM | > 100 µM | 42.5 µM and > 100 µM | > 100 µM | 18 µM and 80.7 µM | 65 µM and > 100 µM | 22.7 µM and > 100 µM | > 100 µM | 10.2 µM and > 100 µM | 96.4 µM and > 100 µM | 27.3 µM and > 100 µM | > 100 µM | 20.7 µM and > 100 µM | 79.7 µM and > 100 µM | 93.4 µM and > 100 µM | > 100 µM | 15.1 µM and > 68.5 µM | > 100 µM
3 | O=C1/C(=C/C(Cl)=C/c2ccccc2)SC(=S)N1CCc1ccc(O)cc1 | 1.43 µM | 3.9 µM | 3.57 µM | 15.9 µM | 2.08 µM | 4.72 µM | 2.02 µM | 4.93 µM | 1.29 µM | 2.69 µM | 1.44 µM | 3 µM | 2.39 µM | 5.49 µM | 1.42 µM | 4.78 µM | 1.6 µM | 3.28 µM | 1.97 µM | 4.14 µM
4 | CC(=O)OCC1OC(S[As](C)C)C(OC(C)=O)C1OC(C)=O (configuration not stated) | 0.302 µM | 1.47 µM | 2.06 µM | 7.33 µM | 2.36 µM | 14.4 µM | 0.732 µM | 4.06 µM | 0.122 µM | 1.02 µM | 0.107 µM | 0.696 µM | 0.231 µM | 0.843 µM | 0.139 µM | 0.528 µM | 0.217 µM | 0.836 µM | 1.2 µM | 9.05 µM
5 | CC(C)(O)[C@H]1[C@@H]2OC(=O)[C@H]1[C@]1(O)C[C@H]3OC34C(=O)O[C@H]2[C@@]41C (some centres not stated) (tested in a mixture with another compound) | – | > 100 µM | – | > 100 µM | – | > 100 µM | – | > 100 µM | – | > 100 µM | – | > 100 µM | – | > 100 µM | – | > 100 µM | – | > 100 µM | – | > 100 µM
6 | Cc1ccc(C(=O)NC2CCCCC2)cc1-c1ccc(C(=O)NCC2CC2)cc1 | > 25 µM | > 25 µM | 10.8 µM | > 25 µM | 16.8 µM | > 25 µM | > 25 µM | > 25 µM | > 19.9 µM | > 25 µM | > 25 µM | > 25 µM | > 25 µM | > 25 µM | 13.5 µM | > 25 µM | > 25 µM | > 25 µM | > 19.4 µM | > 25 µM
7 | O=C1C=CC2(C=C1)CCN=c1c(O)c3c(c(O)c12)=NC=N3 | 10.1 µM and > 100 µM | 32.2 µM and > 100 µM | 20 µM and > 100 µM | 34.4 µM and > 100 µM | 12.2 µM and > 100 µM | 30 µM and > 100 µM | – | 31 µM | 14.5 µM and > 100 µM | 30.5 µM and > 100 µM | – | 4.42 µM | 22.7 µM and > 100 µM | 38.4 µM and > 100 µM | – | 16.6 µM and > 100 µM | 14.7 µM and > 100 µM | 28 µM and > 100 µM | 17 µM and > 100 µM | 31.7 µM and > 100 µM
8 | O=C(O)CC1(C(=O)O)CCCCC1 | – | > 100 µM | – | > 100 µM | – | > 100 µM | – | > 100 µM | – | > 100 µM | – | > 100 µM | – | > 100 µM | – | > 100 µM | – | > 100 µM | – | > 100 µM
9 | CO[C@H](C(=O)N[C@@H](CCCCNC(=O)OCc1ccccc1)C(=O)OC(C)(C)C)[C@@H]1Cc2cc3cc(OC4CC(OC5CC(O)C(O)C(C)O5)C(O)C(C)O4)c(C)c(O)c3c(O)c2C(=O)[C@H]1OC1CC(OC2CC(OC3CC(C)(O)C(O)C(C)O3)C(O)C(C)O2)C(O)C(C)O1 (some centres not stated) | 0.441 µM | 3.34 µM | 0.468 µM | 1.72 µM | 0.364 µM | 1.49 µM | 0.449 µM | > 10 µM | 1.57 µM | 8.18 µM | 0.516 µM | 1.86 µM | 1.15 µM | > 10 µM | 0.687 µM | 3.15 µM | 0.842 µM | > 10 µM | 1.17 µM | 3.1 µM
